From the METLIN SMRT retention time set (Domingo-Almenara et al. 2019) come the findings set out here.

Each structure is given as a SMILES string.

A short description of the data set: gradient 5% acetonitrile 3 min, to 50% in 2 min, to 85% in 15 min, held 3 min, 100 µL/min. To be noted: column: Zorbax Extend-C18 2.1 x 50 mm; eluents: water / acetonitrile, 0.1% formic acid. An outline of the steps:
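The mobile phases were water and acetonitrile, each with 0.1% formic acid, pumped at 100 μL/min through a Zorbax Extend-C18 column (2.1 × 50 mm, 1.8 μm). Pure standards were injected as mixtures of ~100 molecules and detected by a quadrupole time-of-flight mass spectrometer in positive and negative ionization mode. Retention time came from computationally picked adduct peaks, each inspected by hand.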
In turn, `COc1cccc(CNC(=O)N2CCN(Cc3c(C)noc3C)CC2)c1` yielded an RP-LC retention time of 593 s.
The same measure for `CC(C)c1ccc(-n2nc(N3CCN(C(=O)C4CC4)CC3)ccc2=O)cc1`: 810 s.
As for `CC1CCc2onc(C(=O)N(CCC#N)c3ccccc3)c2C1` (centres undefined), the figure is 945 s.
With `Cc1ccc2[nH]cc(CCN3CC(C(=O)N4CCCCCC4)CC3=O)c2c1` (centres undefined), the RP-LC retention time was found to be 800 s.
As for `COc1cc(C(=O)N2CC(=O)Nc3ccc(F)cc3C2c2ccccc2)cc(OC)c1OC` (centres undefined), the figure is 906 s; as for `Fc1cccc(CN2CC[C@@H]3CN(Cc4ccccc4)[C@@H]3C2)c1`, 624 s; as for `Cc1nnsc1C(=O)N1CCC(C(=O)Nc2nccs2)CC1`, 625 s.
`COc1ccc(-n2c(=O)n(C)c(=O)c3cc(C(=O)Nc4ccc(C)c(F)c4)cnc32)cc1` gave an RP-LC retention time of 965 s.
Turning to `Cc1ccccc1CN1CC(F)(F)C[C@H]1COc1ccncc1`, the RP-LC retention time amounted to 821 s.
As to `Fc1cnccc1CN1CC[C@@H]2CN(Cc3ccccc3)[C@@H]2C1`, the RP-LC retention time is 597 s.
The same measure for `Cn1ncc(N2CCCC(C(=O)Nc3ccc4c(c3)CCC4)C2)cc1=O` (centres undefined): 786 s; for `COc1ccccc1N1CCN(c2cc(SCC(=O)NCc3ccco3)ncn2)CC1`: 777 s; for `O=C(Nc1ccc(Cl)cc1)C1CCN(c2nccnc2Sc2ccccc2)CC1`: 1160 s.
The same measure for `COc1cc(-c2noc(CN3C(=O)COc4ccc(C)cc43)n2)cc(OC)c1OC`: 985 s; for `CN1CCC(NC(=O)C2CCc3sc(C(=O)N4CCCCCC4)cc3C2)CC1` (centres undefined): 612 s.
`CCCCOc1ccc(C(=O)N2CCCC2c2nc(-c3ccc(OC)c(OC)c3)no2)cc1` (centres undefined) showed an RP-LC retention time of 1110 s.
The same measure for `O=C(NCc1cc(F)cc(F)c1)c1ccc(NC(=O)C2CCC2)cc1N1CCOCC1`: 871 s.
The same measure for `Cc1cccc(CN2CCCn3nc(C(=O)NC4CCCC4)cc3C2=O)c1`: 879 s; for `CCN1CCCn2nc(C3CCN(C(=O)c4n[nH]c5ccccc45)CC3)cc2C1=O`: 629 s.
`COc1cccc(CNC(=O)C2CCCN(c3nn4c(=O)c5c(nc4s3)CCCC5)C2)c1` (centres undefined) came in with an RP-LC retention time of 737 s.
`CC(=O)N1CCc2cc(N3CC(C(=O)Nc4ccc(F)c(Cl)c4)CC3=O)ccc21` (centres undefined) gave an RP-LC retention time of 751 s.
The same measure for `CCn1nccc1-c1cccc(-c2noc(CNS(=O)(=O)c3ccc(Cl)cc3)n2)c1`: 986 s; for `Cc1ccc(-n2c(-c3ccc(Cl)cc3)cn3c4c(=O)n(C)c(=O)n(C)c4nc23)cc1C`: 720 s; for `C=CCN1C(=O)C2(c3ccccc31)c1[nH]c3ccccc3c1CCN2C(C)=O` (centres undefined): 836 s.
In turn, `COc1ccc(CNC(=O)c2cc(NC(C)=O)cc3nc(C)ccc23)cc1OC` gave an RP-LC retention time of 575 s.
Consider `Clc1cccc(CSc2ncnc3nc[nH]c23)c1`, for which the RP-LC retention time was found to be 765 s.
As for `COc1ccc(-c2nc3cc(C)ccn3c2NC(=O)c2ccc(OC)cc2OC)cc1`, the figure is 706 s.
The same measure for `CCOc1cc(C(=O)N2CCCC(C)(C(=O)NCc3ccc(F)cc3)C2)cc(OCC)c1OCC` (centres undefined): 978 s; for `CCOCCCNC(=O)N1CCc2cc(-c3ccc(C(=O)N4CCOCC4)cc3)ccc21`: 608 s; for `O=C(c1ccc(F)c(Cl)c1)N1CCN=C1N1CCCCC1`: 673 s.
`COc1ccc(F)cc1S(=O)(=O)N1CCCC(Cn2c(C3CC3)nc3cccnc32)C1` (centres undefined) returned an RP-LC retention time of 742 s.
As for `Cc1noc([C@@H]2CC(F)(F)CN2C(=O)c2occc2C)n1`, the figure is 756 s; as for `CCCCNC(=O)CSc1cc(N2CCC(C(=O)NC3CC3)CC2)ncn1`, 615 s.
As to `CCOc1ccccc1-c1nc(-c2ccc3ncn(C)c3c2)no1`, the RP-LC retention time was 747 s.
For the molecule `CCCCNC(=O)C1CCN(C(=O)Nc2ccc(NC(=O)NC3CCCCC3)cc2)CC1`, the RP-LC retention time amounted to 732 s.
As for `Cc1cccc2nnc(N3CCCC(C(=O)N4CCN(c5ccccc5)CC4)C3)n12` (centres undefined), the figure is 614 s; as for `CCCCC(=O)N(C)CCc1noc(-c2ccc(C(=O)N3CCOCC3)cc2)n1`, 686 s.
`CC(C)CC(=O)Nc1c(-c2ccc(F)cc2)nc2ccccn12` came in with an RP-LC retention time of 650 s.
Molecule `CCNC(=O)c1cc(C(C)C)[nH]n1` registered an RP-LC retention time of 618 s.
As for `COc1ccc(CNC(=O)c2nnn(Cc3nc(-c4ccc(C)cc4)oc3C)c2N)cc1OC`, the figure is 935 s; as for `CCC(C)NC(=O)N1CC(n2cc(C(=O)N(C)CCOC)nn2)C1` (centres undefined), 620 s; as for `O=C(C1CCCO1)N1CC2CN(S(=O)(=O)c3cccc(F)c3)CC(C1)O2` (centres undefined), 676 s.
The same measure for `COc1ccc(CN2C(=O)[C@H](OC)[C@@H]2C2=CCN(C(=O)C3(c4ccccc4)CC3)CC2)cc1`: 870 s.
`CCOC(=O)c1c(C)[nH]c(C(=O)N2CCC(CC(=O)NCc3ccc(CC)cc3)CC2)c1C` returned an RP-LC retention time of 869 s.
With `COc1ccc(NC(=O)CSc2nnc3c4sc(N5CCCC5)nc4ncn23)cc1Cl`, the RP-LC retention time was determined as 798 s.
As for `CCC1CN2C=Nc3oc(C)c(C(=O)NCCc4ccccc4)c3C2=N1` (centres undefined), the figure is 666 s; as for `COc1ccc(Cl)cc1NC(=O)CSc1ccc(-n2ccnc2)nn1`, 613 s.
The same measure for `Cc1ccc(-c2nc3ncccn3c2Nc2ccc(C)cc2C)cc1`: 838 s; for `CCn1cc(-c2nc(C)c(C(=O)NCc3ccc(OC)cc3)s2)c2cccnc21`: 902 s.
The same measure for `COc1ccc(-c2ccc(N3CCN(C(=O)Cc4cn(C)c5ccccc45)CC3)nn2)cc1`: 656 s; for `CCn1c(C(=O)N2CCN(c3ccccn3)CC2)cc2c(=O)oc3ccccc3c21`: 637 s.
Molecule `CCN1C(=O)COc2ccc(-c3csc(NC(=O)c4cc(OC)cc(OC)c4)n3)cc21` returned an RP-LC retention time of 1050 s.
As for `O=C(C1COc2ccccc2O1)N1CCCN(C2CCN(CC3CC3)C2=O)CC1` (centres undefined), the figure is 560 s; as for `CCOc1ccc(OCC)c(NS(=O)(=O)c2cc(-c3c(CC)noc3NC(C)=O)ccc2C)c1`, 932 s; as for `O=C(c1cccnc1)N1CCC(c2noc(-c3cnccn3)n2)C1` (centres undefined), 581 s.
As for `O=c1c2ccccc2oc2nc(-c3ccco3)n(Cc3ccccc3)c(=O)c12`, the figure is 797 s; as for `CC1=C(c2ccc(C(C)C)cc2)S(=O)(=O)N=C1N1CCC(NC(=O)C2CCOC2)CC1` (centres undefined), 788 s; as for `COc1ccc(Cl)cc1C(=O)N1CCC2(CC1)N=C(c1ccc(Br)cc1)NO2`, 959 s.
The same measure for `CCOC(=O)c1cnc2cc(Cl)c(OC)cc2c1N1CCN(c2cccc(Cl)c2)CC1`: 1240 s.
In turn, `Cn1nc(C(=O)N2CCN(c3cc(-c4ccccc4)[nH]n3)CC2)c2ccccc21` displayed an RP-LC retention time of 805 s.
The same measure for `COc1ccccc1CNC(=O)Cn1nc2cc(-c3ccccc3)nc(C)n2c1=O`: 705 s; for `CC(Oc1cc(O)c2c(=O)cc(-c3ccccc3)oc2c1)C(=O)c1ccccc1` (centres undefined): 1210 s.
The same measure for `O=C(c1ccc2cc[nH]c2c1)N1CCN(C(=O)c2cc(-c3ccncc3)n[nH]2)CC1`: 594 s; for `O=C(CN1CCC(c2nc(-c3cccs3)no2)CC1)N1CCN(c2ccccc2)CC1`: 702 s; for `O=c1c2cc(-c3ccc(F)cc3)nn2cnn1Cc1nc(-c2ccc(F)cc2)no1`: 1100 s.
As for `CCC(C)NC(=O)c1nn(-c2ccc(OC)cc2)c(OC)cc1=O` (centres undefined), the figure is 692 s; as for `O=C(NC1CC1)C1CCN(S(=O)(=O)c2cc(-c3noc(C4CC4)n3)cs2)CC1`, 790 s.
For the molecule `Cn1c(CN2CCN(C(=O)c3cc4ccccc4o3)CC2)nc2ccccc21`, the RP-LC retention time came out at 580 s.
With `O=C(NCc1cccc(F)c1)c1ccc2c(c1)ncn2CCN1CCCC1`, the RP-LC retention time came to 582 s.
The molecule `COc1ccc(C(O)CN2CCN(C3CCCCC3)CC2)cc1` (centres undefined) had an RP-LC retention time of 540 s.
Molecule `O=C(CCc1ccccc1)N1CCC(c2noc(-c3cnccn3)n2)C1` (centres undefined) had an RP-LC retention time of 735 s.
As for `CCOC(=O)c1c(C)[nH]c(CCC(=O)NC(C)c2ccc3c(c2)OCCO3)c1C` (centres undefined), the figure is 854 s; as for `O=C(NCCN1CCCCC1)c1cc2n(n1)CCCN(Cc1ccc(Cl)cc1)C2=O`, 642 s.
As for `O=C(CN1C(=O)CSc2ccc(C(=O)N3CCCCC3)cc21)NC1CCCCCC1`, the RP-LC retention time was determined as 839 s.
In turn, `Cc1nc(CC(=O)NCc2ccc(F)cc2F)sc1C(=O)NC1CC1` registered an RP-LC retention time of 693 s.
For the molecule `CCC(C)NC(=O)CN1C(=O)C2CCCCN2c2ccc(S(=O)(=O)N3CCCC3)cc21` (centres undefined), the RP-LC retention time stood at 850 s.
In turn, `CCn1cc(-c2ccncc2)cc1C(=O)NCc1ccccc1Br` showed an RP-LC retention time of 682 s.
As for `CCOc1ccc(C(=O)N2CCN(c3cc(CC)n4cnnc4n3)CC2)cc1`, the figure is 742 s; as for `Cc1cccc(Sc2nccnc2N2CCCC(C(=O)NCc3cccc(Cl)c3)C2)c1` (centres undefined), 1180 s.
